Assay results published in patent US5510385A, “Pharmaceutical compositions containing the salts of S(+)-2-(4-isobutylphenyl)propionic acid with basic aminoacids” (priority 1993, dated 1996).
Counter-ions that a name gives are not always drawn.

How the values were obtained:
[1] = S(+)-Ibuprofen plasma concentrations and bioavailability parameters after single oral dose, cross-over (Examples 6-10, HPLC)
Protocol: Each subject was apparently healthy, especially as lap as the Renal, hepatic and hematopoietic functions were concerned.
For the trial, a cross-over design was adopted: each subject received both preparations in two treatment sessions carried out in two different weeks randomizing the order of the administration.
Further, samples of venous blood were withdrawn at 5, 10, 15, 30, 45, 60, 90, 120, 240 and 480 minutes after the treatment. Plasma was then prepared by centrifugation and preserved at -20° C. until the analysis.
The analytical determination of the active ingredient in the plasma samples was carried out by HPLC method as described hereinafter. Chromatographic conditions:
Apparatus: JASCO BIP-1 with U.V. detector UVI DEC-100 v
Column: Chiral AGP, 100×4.0 mm, 5 μm (Chron Tech) with a precolumn Chiral AGP 10×3.0 mm (Chron Tech) […]
The following parameters were calculated:
the area under curve of S(+)-Ibuprofen plasma concentration from time "zero" to "infinite" (AUCtot) was calculated by the following formula: AUCtot =AUCo→480 +AUC480→- wherein AUC480- =concentration at 480 minutes/Ke. and Ke =elimination constant
mean peak time (tmax), expressed as minutes, was obtained from the average of each peak time
the mean peak of maximum plasma concentration (Cmax), expressed as μg/ml, was calculated by the average of each concentration peak value.

[2] = in words, versus Ibuprofen (and, EP 424028, Ibuprofen salts and S(+)-Ibuprofen); cited from earlier work

Row | SMILES | increase of S(+)-Ibuprofen maximum plasma concentration over equivalent Ibuprofen salt composition ([1]; 400 mg or 300 mg of S(+)-Ibuprofen versus 800 mg or 600 mg of Ibuprofen, oral) | S(+)-Ibuprofen maximum plasma concentration (Cmax) compared with equivalent racemic Ibuprofen treatment ([1]; in words, versus reference treatment) | analgesic effect (onset and duration) [2]
1 | CC(C)Cc1ccc([C@H](C)C(=O)O)cc1 [S(+)-Ibuprofen arginate, salt of S(+)-Ibuprofen with L-arginine] | 15-20% | substantially equal | –
2 | CC(C)Cc1ccc([C@H](C)C(=O)O)cc1 [S(+)-Ibuprofen, (S)-enantiomer of 2-(4-isobutylphenyl)propionic acid] | – | – | faster, and consequently a longer, analgesic effect than Ibuprofen
